Measurements taken from patent US8299061B2, “Inhibitors of diacylglycerol acyltransferase” (Eli Lilly and Company, priority 2009, dated 2012).

Tests used:
recombinant human DGAT-1 = molecular target: T1, recombinant human DGAT-1 (Homo sapiens, UniProt O75907); assay: DGAT-1 enzyme assay; format: biochemical; conditions: recombinant human DGAT-1 expressed in sf9 insect cells; geometric mean±standard error
T1 construct: made in house; host or cells: sf9 insect cells (recombinant baculovirus); crude cell homogenate used
T1 sequence (O75907 1-488): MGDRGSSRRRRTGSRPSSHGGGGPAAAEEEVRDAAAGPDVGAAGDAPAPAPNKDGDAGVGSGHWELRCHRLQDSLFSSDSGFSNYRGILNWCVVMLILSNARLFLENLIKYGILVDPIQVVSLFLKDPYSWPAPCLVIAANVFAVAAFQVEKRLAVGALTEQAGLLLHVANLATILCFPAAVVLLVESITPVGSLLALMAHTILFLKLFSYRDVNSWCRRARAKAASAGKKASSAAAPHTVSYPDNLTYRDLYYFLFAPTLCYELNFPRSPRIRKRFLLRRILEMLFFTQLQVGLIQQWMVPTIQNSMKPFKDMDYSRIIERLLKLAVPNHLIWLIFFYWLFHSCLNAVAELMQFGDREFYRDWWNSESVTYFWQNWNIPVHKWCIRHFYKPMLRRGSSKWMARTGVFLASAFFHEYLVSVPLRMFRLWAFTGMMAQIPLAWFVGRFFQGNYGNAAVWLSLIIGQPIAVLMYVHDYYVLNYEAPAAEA
Method: DGAT-1 enzyme assay Inhibitors of DGAT-1 are identified with an in vitro enzymatic assay which uses recombinant human DGAT-1 expressed in sf9 insect cells as an enzyme source. DGAT-1 enzyme is produced by infecting cells with recombinant baculovirus containing a DGAT-1 expression vector. After 48 hr infection cells are harvested by centrifugation, resuspended in cold 20 mM NaCl, and disrupted with a Dounce homogenizer. Fifteen milliliters of 20 mM NaCl are added to a cell pellet for each liter of infected cell suspension. DNA in the homogenate is sheared by pulling the cell extract through a 25 gauge needle. DGAT-1 activity in the baculovirus infected cell homogenate is compared to homogenate from uninfected cells to assess background enzymatic activity associated with sf9 cells.
Assays are performed in 96 well plates using a modification of the assay described by Coleman (Methods in Enzymology 209. pp 98-102 (1992)). Briefly, compounds are tested in a 1:3 serial dilution scheme from 100 μM to 1.7 nM final concentration. The enzyme reaction mixture contains substrates 250 μM 1,2-sn-diacylglycerol (Avanti Polar Lipids), 5 μM ^14C oleoyl CoA, and 45 μM oleoyl CoA in an aqueous buffer containing 150 mM Hepes buffer pH7.4, 0.7% vol/vol Triton® X-100 and Complete™ protease inhibitors. […] One hundred microliters of scintillation cocktail is then added and, after 8 hr, plates are counted. […]

[1] = system: C57 B16 mice fed a high fat diet; assay: Diet-induced obese mouse model; format: in vivo; conditions: twice daily oral gavage, meta-analysis; for Vehicle controlled percent Fat Mass Change, Mean: QNMR; for Vehicle controlled percent Food Intake Change, Mean: cumulative food intake
Method: Diet-induced obese mouse model: To measure effects on body weight and food intake, compounds are tested in C57 B16 mice fed a high fat diet (Research Diets D12492). Fourteen week old mice raised on D12492 are acclimated to the test vivarium for 2 weeks on a 12 hour light/dark cycle. Seven days prior to compound testing, animals are dosed by oral gavage either once or twice daily with a suitable vehicle in order to accustom the mice to handling. On day 6 of vehicle dosing, body composition is measured by quantitative nuclear magnetic resonance (QNMR). On day seven of vehicle dosing, animals are randomized by body weight and sorted into test groups (n=8). Compound dosing, twice daily, commences after 7 days of vehicle dosing. Animals are given compound 30 minutes prior to the dark phase of the dark/light cycle and, if desired, again 5.5 hours into the dark phase. Compound dosing continues for 15 to 22 days during which time food intake and body weight are measured daily. On day 14 of the experiment, body composition is measured for a second time by QNMR. On day 15, terminal bleeds are taken from two animals per test group at 0, 2, 4, and 6 hours after the final dose for measurement of test compound levels in plasma.
The data are analyzed using a meta-analysis. For the percent Body Weight gain (loss) and percent Fat Mass gain (loss), the measure of treatment effect in the meta-analysis is the group mean difference between treatment and control group. For the percent Cumulative Food Intake Change from Control (% CFICFC), the measure of treatment effect is % CFICFC itself. The overall treatment effect is estimated as the weighted average of treatment effect from individual studies, with the weights being the inverse of variance of individual study's treatment effect estimates. The homogeneity Q-test is performed. If the test is significant at 0.10 level, then a mixed-effect model is used to include both inter-study and intra-study variability. The weights are adjusted to the inverse of the sum of inter-study variance and the intra-study variance of treatment effect estimates from individual studies. The inter-study variance is estimated by the Paule-Mandel estimator. (References: Sutton, A. J., Jones, D. R., Abrams, K. R., Sheldon, T. A., and Song, F., Methods for Meta-analysis in Medical Research London, John Wiley, ISBN 0-471-49066-0 (2000). Dersimonian R., and Kacker, R., Random-effects model for meta-analysis of clinical trials: An update, Contemporary Clinical Trials 28 p 105-114 (2007). Compounds are tested substantially by the diet-induced obese mouse model method described herein.
For N-[1-[[(4R)-5,6-dihydro-4H-imidazo[1,2-a][1]benzazepin-4-yl]carbamoyl]cyclopropyl]-4-ethoxy-benzamide (Examples 1, 3, 57), three experiments were performed at doses of 1, 3, 10 and 30 mg/kg (two of the experiments) and 3 and 30 mg/kg (one of the experiments). Because the 3 and 30 mg/kg doses are common to the experiments, these doses are used to compare the results.
For 4-Chloro-N-[1-[[(4R)-5,6-dihydro-4H-imidazo[1,2-a][1]benzazepin-4-yl]carbamoyl]cyclopropyl]benzamide (Examples 2, 21, 58), two experiments were performed at doses of 3, 10, 30 and 60 mg/kg and at 0.3, 1, 3 and 10 mg/kg. For each of the experiments, the doses are given twice per day. Because the 3 and 10 mg/kg doses are common to the experiments, these doses are used to compare the results.

CCOc1ccc(C(=O)NC2(C(=O)N[C@@H]3CCc4ccccc4-n4ccnc43)CC2)cc1 [Example 1, N-[1-[[(4R)-5,6-dihydro-4H-imidazo[1,2-a][1]benzazepin-4-yl]carbamoyl]cyclopropyl]-4-ethoxy-benzamide]
IC50 (recombinant human DGAT-1): 134 ± 8 nM | Vehicle controlled percent Fat Mass Change, Mean ([1]; 3 mg/kg − control): −6.69% | Vehicle controlled percent Food Intake Change, Mean ([1]; 3 mg/kg − control): −10.11% | Vehicle controlled percent Body Weight Change, Mean ([1]; 3 mg/kg − control): −4.74% | Vehicle controlled percent Fat Mass Change, Mean ([1]; 30 mg/kg − control): −8.24% | Vehicle controlled percent Food Intake Change, Mean ([1]; 30 mg/kg − control): −11.35% | Vehicle controlled percent Body Weight Change, Mean ([1]; 30 mg/kg − control): −5.31%

O=C(NC1(C(=O)N[C@@H]2CCc3ccccc3-n3ccnc32)CC1)c1ccc(Cl)cc1 [Example 2, 4-Chloro-N-[1-[[(4R)-5,6-dihydro-4H-imidazo[1,2-a][1]benzazepin-4-yl]carbamoyl]cyclopropyl]benzamide]
IC50 (recombinant human DGAT-1): 89 ± 0.98 nM | Vehicle controlled percent Fat Mass Change, Mean ([1]; 3 mg/kg − control): −9.53% | Vehicle controlled percent Food Intake Change, Mean ([1]; 3 mg/kg − control): −11.31% | Vehicle controlled percent Body Weight Change, Mean ([1]; 3 mg/kg − control): −4.65% | Vehicle controlled percent Fat Mass Change, Mean ([1]; 10 mg/kg − control): −8.41% | Vehicle controlled percent Food Intake Change, Mean ([1]; 10 mg/kg − control): −8.43% | Vehicle controlled percent Body Weight Change, Mean ([1]; 10 mg/kg − control): −4.54%
